Patent US9108983B2, “Pyrrole compounds, a process for their preparation and pharmaceutical compositions containing them” (LES LABORATOIRES SERVIER, priority 2013, dated 2015)
Counter-ions that a name gives are not always drawn.

What was measured:
[1] = system: RS4;11 leukaemia tumour line; assay: In vitro cytotoxicity (Microculture Tetrazolium Assay); assay type: cell-based; conditions: Homo sapiens, RS4-11, 48 h, RS4;11 cells, exposed for 48 hours, cell viability; read-out: IC50 (nM) MTT RS4;11
Experimental: The cytotoxicity studies were carried out on the RS4;11 leukaemia tumour line.
The cells are distributed onto microplates and exposed to the test compounds for 48 hours.
The cell viability is then quantified by a colorimetric assay, the Microculture Tetrazolium Assay (Cancer Res., 1987, 47, 939-942).

Bcl-2 protein = Bcl-2 protein (histag-Bcl-2, UniProtKB P10415) (Homo sapiens (Human), UniProt P10415); assay: Inhibition of Bcl-2 by the fluorescence polarisation technique; assay type: binding; conditions: incubation for 2 hours, read-out: IC50 (nM) Bcl-2 FP
Outline: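 Fluorescence polarisation competition: His-tagged Bcl-2 (2.50×10^−8 M final) with fluorescein-labelled peptide (1.00×10^−8 M final) in 10 mM Hepes, 150 mM NaCl, 0.05% Tween20, pH 7.4. Increasing compound concentrations were added. Polarisation was read after 2 h incubation.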

Chain of Bcl-2 protein (P10415 whole entry): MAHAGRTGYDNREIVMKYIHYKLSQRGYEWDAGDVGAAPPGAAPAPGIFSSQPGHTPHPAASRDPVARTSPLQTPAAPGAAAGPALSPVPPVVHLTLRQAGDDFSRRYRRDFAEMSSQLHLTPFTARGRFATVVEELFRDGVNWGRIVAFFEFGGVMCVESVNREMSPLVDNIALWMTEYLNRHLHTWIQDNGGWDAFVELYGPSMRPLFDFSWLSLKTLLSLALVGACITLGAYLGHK

Row | IC50 (Bcl-2 protein) [nM] | SMILES | IC50 [1] [nM]
1 | 8.4 | CCn1c(-c2cc3c(cc2C(=O)N2Cc4ccccc4C[C@H]2CN2CCOCC2)OCO3)cc(C(=O)N(c2ccc(O)cc2)c2cnn(C)c2)c1C [Example 92, 1-Ethyl-N-(4-hydroxyphenyl)-2-methyl-N-(1-methyl-1H-pyrazol-4-yl)-5-(6-{[(3S)-3-(morpholin-4-ylmethyl)-3,4-dihydroisoquinolin-2(1H)-yl]carbonyl}-1,3-benzodioxol-5-yl)-1H-pyrrole-3-carboxamide hydrochloride] | 37.8
2 | 19.7 | COCCn1c(-c2cc3c(cc2C(=O)N2Cc4ccccc4C[C@H]2CN2CCOCC2)OCO3)cc(C(=O)N(c2ccc(O)cc2)c2cnn(C)c2)c1C [Example 93, N-(4-Hydroxyphenyl)-1-(2-methoxyethyl)-2-methyl-N-(1-methyl-1H-pyrazol-4-yl)-5-(6-{[(3S)-3-(morpholin-4-ylmethyl)-3,4-dihydroisoquinolin-2(1H)-yl]carbonyl}-1,3-benzodioxol-5-yl)-1H-pyrrole-3-carboxamide hydrochloride] | 368
3 | 8.6 | Cc1c(C(=O)N(c2ccc(O)cc2)c2cnn(C)c2)cc(-c2cc3c(cc2C(=O)N2Cc4ccccc4C[C@H]2CN2CCOCC2)OCO3)n1CCF [Example 94, 1-(2-Fluoroethyl)-N-(4-hydroxyphenyl)-2-methyl-N-(1-methyl-1H-pyrazol-4-yl)-5-(6-{[(3S)-3-(morpholin-4-ylmethyl)-3,4-dihydroisoquinolin-2(1H)-yl]carbonyl}-1,3-benzodioxol-5-yl)-1H-pyrrole-3-carboxamide hydrochloride] | 104
4 | 7 | Cc1c(C(=O)N(c2ccc(O)cc2)c2cnn(C)c2)cc(-c2cc3c(cc2C(=O)N2Cc4ccccc4C[C@H]2CN2CCOCC2)OCO3)n1CC(F)F [Example 95, 1-(2,2-Difluoroethyl)-N-(4-hydroxyphenyl)-2-methyl-N-(1-methyl-1H-pyrazol-4-yl)-5-(6-{[(3S)-3-(morpholin-4-ylmethyl)-3,4-dihydroisoquinolin-2(1H)-yl]carbonyl}-1,3-benzodioxol-5-yl)-1H-pyrrole-3-carboxamide hydrochloride] | 174
5 | 13.5 | Cc1c(C(=O)N(c2ccc(O)cc2)c2cnn(C)c2)cc(-c2cc3c(cc2C(=O)N2Cc4ccccc4C[C@H]2C)OCO3)n1CCN1CCOCC1 [Example 96, N-(4-Hydroxyphenyl)-2-methyl-5-(6-{[(3R)-3-methyl-3,4-dihydroisoquinolin-2(1H)-yl]carbonyl}-1,3-benzodioxol-5-yl)-N-(1-methyl-1H-pyrazol-4-yl)-1-[2-(morpholin-4-yl)ethyl]-1H-pyrrole-3-carboxamide hydrochloride] | 161
6 | 19 | Cc1c(C(=O)N(c2ccccc2)c2ccc(O)cc2)cc(-c2cc3c(cc2C(=O)N2Cc4ccccc4C[C@H]2C)OCO3)n1CCN1CCOCC1 [Example 97, N-(4-Hydroxyphenyl)-2-methyl-5-(6-{[(3R)-3-methyl-3,4-dihydroisoquinolin-2(1H)-yl]carbonyl}-1,3-benzodioxol-5-yl)-1-[2-(morpholin-4-yl)ethyl]-N-phenyl-1H-pyrrole-3-carboxamide hydrochloride] | 98
7 | 7.6 | Cc1c(C(=O)N(c2ccccc2)c2ccc(O)cc2)cc(-c2cc3c(cc2C(=O)N2Cc4ccccc4C[C@H]2C)OCO3)n1CCN(C)C [Example 98, 1-[2-(Dimethylamino)ethyl]-N-(4-hydroxyphenyl)-2-methyl-5-(6-{[(3R)-3-methyl-3,4-dihydroisoquinolin-2(1H)-yl]carbonyl}-1,3-benzodioxol-5-yl)-N-phenyl-1H-pyrrole-3-carboxamide hydrochloride] | 68.3
